# Test results reported in patent US20230310388A1, “Methods and Compositions for Treating Fungal Infections” (Neoculi Pty Ltd, priority 2020, published 2023).
# Several values for one entry are separate records, joined by “and”; a condition that tells them apart may be missing. Equal entries are not always repeated. Where two headings read alike, the source gives them in different places.
# Columns and labels:
# Candida albicans [1] = assay: CLSI broth microdilution MIC (Example 3); format: cell-based
# Procedure: (§1) Antifungal minimum inhibitory concentration (MIC) testing was undertaken as recommended by the CLSI. Briefly, antifungal susceptibility tests were performed for amphotericin B, robenidine (NCL812) and 5 robenidine analogs (NCL062, NCL195, NCL219, NCL259, NCL265) by standard broth microdilution method (CLSI) in RPMI 1640. Various concentrations (ranging from high to low) of the selected compounds were prepared in RPMI 1640 medium by double dilution in 96-well microtitre plates. Each well contained an inoculum of approximately 2×10^3 cells/mL. The wells without addition of drugs served as negative (no inoculum) and positive (inoculum only) growth controls. Microtitre plates were incubated at 35° C. for 24-48 hours. […] Antifungal MICs were determined for each isolate in duplicate; if the values obtained were different, the MIC test was repeated a third time. Antifungal susceptibility tests were performed for amphotericin B and NCL analogs by standard broth microdilution method (CLSI). Briefly, various concentrations (ranging from high to low) of the selected compounds were prepared in RPMI 1640 medium by double dilution in the 96-well plates. Each well contained an inoculum of approximately 2×10^3 cells/mL. The wells without addition of drugs served as a negative control. Micro plates were incubated at 35° C. for 48 hour and read spectrophotometrically at 600 nm, using a microplate reader (Multiskan-EX; Thermo Elect. Corp., USA).
# Candida parapsilosis = assay: CLSI broth microdilution MIC (Example 3); format: cell-based; details: Candida parapsilosis ATCC 22019
# Procedure: as §1
# [2] = system: Candida albicans ATCC14053; assay: Broth micro-dilution screen at 16 μg/mL and MIC (Example 9); format: cell-based; details: for MIC: C. albicans ATCC14053, test range 0.25-64 μg/mL, duplicate; for Screen at 16 μg/mL: single concentration 16 μg/mL, Growth or No growth of C. albicans ATCC14053
# Procedure: The antifungal activity of 201 NCL analogs against Candida albicans ATCC14053 in vitro was investigated. A broth micro-dilution method was used, according to CLSI guidelines as described. NCL analogs were dissolved in DMSO and originally screened at a single concentration of 16 μg/mL.
# Candida albicans [3] = assay: CLSI broth microdilution MIC (Example 4); format: cell-based; details: for antifungal activity against the two isolates of Candida albicans: summary in words
# In short: (§2)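 CLSI broth microdilution in RPMI 1640 with two-fold compound dilutions and inoculum about 2×10^3 cells/mL. Plates incubated 35° C for 24-48 hours; MICs determined in duplicate, with a third test when the duplicates differed.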
# Cryptococcus neoformans [4] = assay: CLSI broth microdilution MIC (Example 4); format: cell-based
# In short: as §2
# Candida albicans [5] = assay: CLSI broth microdilution MIC (Example 5); format: cell-based
# In short: (§3)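 Broth microdilution per CLSI in RPMI 1640 with twofold compound dilutions, inoculum about 2×10^3 cells/mL. Plates incubated at 35° C for 24-48 hours. MIC determined per isolate in duplicate, with a third repeat when the two values differed.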
# Cryptococcus neoformans [6] = assay: CLSI broth microdilution MIC (Example 5); format: cell-based
# In short: as §3
# C. gattii = assay: CLSI broth microdilution MIC (Example 6); format: cell-based, Cryptococcus gattii
# In short: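 CLSI broth microdilution in RPMI 1640, compounds serially double-diluted, inoculum about 2×10^3 cells/mL. Incubation at 35° C for 24-48 hours. MICs determined per isolate in duplicate, with a third repeat if values differed.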
# [7] = human clinical isolate C. gattii 16-90050373
# [8] = human clinical isolate C. gattii 17-90028211
compound,measurement,setting,value
Cc1ccc(/C=N/Nc2cc(N/N=C/c3ccc(C)cc3)nc(N)n2)cc1 [NCL195],MIC,"Candida albicans [1]; Candida albicans ATCC 90028, 1st",2 µg/mL
same,MIC,"Candida albicans [1]; Candida albicans ATCC 90028, 2nd",2 µg/mL
same,MIC,"Candida albicans [1]; Candida albicans, 1st",2 µg/mL
same,MIC,"Candida albicans [1]; Candida albicans, 2nd",2 µg/mL
same,MIC,Candida parapsilosis; 1st,1 µg/mL
same,MIC,Candida parapsilosis; 2nd,2 µg/mL
same,MIC,[2],1 µg/mL and 2 µg/mL
same,Screen at 16 μg/mL,[2],No growth
same,MIC at 24-48 hours,Candida albicans [3]; Candida albicans ATCC 90028,2 µg/mL
same,MIC at 24-48 hours,Candida albicans [3]; Candida albicans SA3,2 µg/mL
same,antifungal activity against the two isolates of Candida albicans,Candida albicans [3],high antifungal activity
same,MIC at 24-48 hours,Cryptococcus neoformans [4]; Cryptococcus neoformans SA1,2 µg/mL
same,MIC at 24-48 hours,Cryptococcus neoformans [4]; Cryptococcus neoformans SA2,2 µg/mL
same,MIC,Candida albicans [5]; C. albicans SA3,2 µg/mL
same,MIC,Candida albicans [5]; Candida albicans ATCC 90028,2 µg/mL
same,MIC,Candida albicans [5]; clinical isolate C. albicans 12-93301752 Azole Resistant,4 µg/mL
same,MIC,Candida albicans [5]; clinical isolate C. albicans 14-90045999 Azole Resistant,>16 µg/mL
same,MIC,Candida albicans [5]; clinical isolate C. albicans 15-45171061,8 µg/mL
same,MIC,Candida albicans [5]; clinical isolate C. albicans 15-91329871,8 µg/mL
same,MIC,Candida albicans [5]; clinical isolate C. albicans 16-24136919 Azole Resistant,4 µg/mL
same,MIC,Candida albicans [5]; clinical isolate C. albicans 16-46177400,4 µg/mL
same,MIC,Candida albicans [5]; clinical isolate C. albicans 16-90050810,4 µg/mL
same,MIC,Candida albicans [5]; clinical isolate C. albicans 16-90054237,4 µg/mL
same,MIC,Candida albicans [5]; clinical isolate C. albicans 18-144-00196,4 µg/mL
same,MIC,Candida albicans [5]; clinical isolate C. albicans 18-148-08188 Azole Resistant,>16 µg/mL
same,activity against one or more isolates of Cryptococcus neoformans and Candida albicans,Candida albicans [5]; summary in words,highly active
same,MIC,Cryptococcus neoformans [6]; Cryptococcus neoformans SA1,2 µg/mL
same,MIC,Cryptococcus neoformans [6]; Cryptococcus neoformans SA2,2 µg/mL
same,MIC,C. gattii; human clinical isolate C. gatti 17-90232099,2 µg/mL
same,MIC,C. gattii; [7],2 µg/mL
same,MIC,C. gattii; [8],2 µg/mL
same,MIC,C. gattii; human clinical isolate C. gattii 17-90028217,2 µg/mL
same,MIC,C. gattii; human clinical isolate C. gattii 17-90028242,2 µg/mL
"N=C(N/N=C/c1ccc(Cl)cc1)N/N=C/c1ccc(Cl)cc1 [NCL812, robenidine, reference compound]",MIC,"Candida albicans [1]; Candida albicans, ATCC90028, Candida albicans ATCC 90028, 1st, read-out: MIC",0.25 µg/mL
same,MIC,"Candida albicans [1]; Candida albicans, ATCC90028, Candida albicans ATCC 90028, 2nd, read-out: MIC",0.5 µg/mL
same,MIC,"Candida albicans [1]; Candida albicans, two Candida albicans and one Candida parapsilosis isolates, summary range, read-out: MIC",0.5 to 8 µg/mL
same,MIC,"Candida albicans [1]; Candida albicans, 1st, read-out: MIC",0.5 µg/mL
same,MIC,"Candida albicans [1]; Candida albicans, 2nd, read-out: MIC",1 µg/mL
same,MIC,Candida parapsilosis; 2nd,0.5 µg/mL
same,MIC,"Candida parapsilosis; Lodderomyces parapsilosis, ATCC22019, 1st, read-out: MIC",0.5 µg/mL
same,activity against Candida albicans at the low discriminating concentration,"[2]; 16 μg/mL screen, summary in words",high activity
same,MIC,"[2]; Candida albicans, read-out: MIC",0.5 µg/mL
same,Screen at 16 μg/mL,[2],No growth
same,MIC,"Candida albicans [3]; ATCC90028, read-out: MIC at 24-48 hours, Candida albicans ATCC 90028",2 µg/mL
same,MIC,"Candida albicans [3]; read-out: MIC at 24-48 hours, Candida albicans SA3",2 µg/mL
same,antifungal activity against the two isolates of Candida albicans,Candida albicans [3],high antifungal activity
same,MIC at 24-48 hours,Cryptococcus neoformans [4]; Cryptococcus neoformans SA2,2 µg/mL
same,MIC,"Cryptococcus neoformans [4]; read-out: MIC at 24-48 hours, Cryptococcus neoformans SA1",2 µg/mL
same,MIC,"Cryptococcus neoformans [4]; two isolates of Cryptococcus neoformans, summary range, read-out: MICs",1 to 16 µg/mL
same,MIC,"Candida albicans [5]; Candida albicans, ATCC90028, Candida albicans ATCC 90028, read-out: MIC",2 µg/mL
same,MIC,"Candida albicans [5]; Candida albicans, clinical isolate C. albicans 12-93301752 Azole Resistant, read-out: MIC",2 µg/mL
same,MIC,"Candida albicans [5]; Candida albicans, clinical isolate C. albicans 14-90045999 Azole Resistant, read-out: MIC",2 µg/mL
same,MIC,"Candida albicans [5]; Candida albicans, clinical isolate C. albicans 15-45171061, read-out: MIC",1 µg/mL
same,MIC,"Candida albicans [5]; Candida albicans, clinical isolate C. albicans 15-91329871, read-out: MIC",2 µg/mL
same,MIC,"Candida albicans [5]; Candida albicans, clinical isolate C. albicans 16-24136919 Azole Resistant, read-out: MIC",2 µg/mL
same,MIC,"Candida albicans [5]; Candida albicans, clinical isolate C. albicans 16-46177400, read-out: MIC",4 µg/mL
same,MIC,"Candida albicans [5]; Candida albicans, clinical isolate C. albicans 16-90050810, read-out: MIC",2 µg/mL
same,MIC,"Candida albicans [5]; Candida albicans, clinical isolate C. albicans 16-90054237, read-out: MIC",2 µg/mL
same,MIC,"Candida albicans [5]; Candida albicans, clinical isolate C. albicans 18-144-00196, read-out: MIC",0.5 µg/mL
same,MIC,"Candida albicans [5]; Candida albicans, clinical isolate C. albicans 18-148-08188 Azole Resistant, read-out: MIC",1 µg/mL
same,MIC,"Candida albicans [5]; Candida albicans, C. albicans SA3, read-out: MIC",2 µg/mL
same,activity against all tested isolates of Cryptococcus neoformans and Candida albicans,Candida albicans [5]; summary in words,active
same,activity against one or more isolates of Cryptococcus neoformans and Candida albicans,Candida albicans [5]; summary in words,highly active
same,MIC,"Cryptococcus neoformans [6]; Cryptococcus neoformans SA1, read-out: MIC",2 µg/mL
same,MIC,Cryptococcus neoformans [6]; Cryptococcus neoformans SA2,2 µg/mL
same,MIC,"C. gattii; Cryptococcus gattii, human clinical isolate C. gattii 17-90028217, read-out: MIC",16 µg/mL
same,MIC,C. gattii; [7],16 µg/mL
same,MIC,C. gattii; [8],16 µg/mL
